Assay results taken from patent US20240368131A1, “OXOINDOLINYL AMIDE DERIVATIVES FOR INHIBITING NLRP3 AND USES THEREOF” (VENTUS THERAPEUTICS U.S. INC., priority 2022, published 2024).

Experiments:
Type in all cases: cell-based
human NLRP3 [1] = molecular target: T1, human NLRP3 (Homo sapiens, UniProt Q96P20); test: Human Whole Blood (hWB) NLRP3 Assay (IL-1β MSD); settings: LPS 1 μg/ml 4.5 h, ATP 30 min, class symbols
Description: Human whole blood was drawn from healthy volunteers after obtaining written informed consent. Heparin lithium coated tubes were used to collect blood from volunteers. Blood samples were distributed on 96 well plates using 90 μl per well. Priming was performed by adding 5 μl of LPS (O26:B6; Sigma L-2654) at a final concentration of 1 μg/ml for 4.5 hours in a humidified incubator with 37° C., 5% CO2. Thirty minutes prior to NLRP3 activation, 5 μl of a 20× compound solution or vehicle (2% DMSO) was added to each well and plates were incubated on a shaker (450 rpm) in a humidified incubator with 37° C., 5% CO2. Activation was then performed by adding 3.3 μl of a 31× ATP solution per well. At the end of the 30 minutes stimulation, the plates were centrifuged (800 g, 10 min, room temperature) and the plasma from each well was frozen at −80° C. IL-1β levels in the supernatant were analyzed using a mesoscale discovery assay (MSD K151TUK) according to the manufacturers' instructions.
hWB IL-1β Assay: A represents an IC50 value <0.3 μM; B represents an IC50 value ≥0.3 μM and <0.5 μM; C represents an IC50 value ≥0.5 μM and <1.0 μM; D represents an IC50 value >1.0 μM.

mouse NLRP3 = molecular target: T2, mouse NLRP3 (Mus musculus, UniProt Q8R4B8); test: Mouse Whole Blood (mWB) NLRP3 Assay (IL-1β MSD); settings: CD1 mouse whole blood, LPS 1 μg/mL 5 h, ATP 5 mM; class symbols
T2 construct: Blood was drawn from female CD1 mice (9 to 10 weeks) by cardiac puncture; from tissue; host or cells: whole blood of female CD1 mice, LPS-primed, ATP-stimulated
Description: Reagents: The following reagents were used: blood collection tubes (Heparin); U-bottom 96-well tissue culture (Falcon 353077); HBSS for LPS, ATP and compound dilutions (Gibco 24020-117); and LPS, E. coli serotype 026:B6 (Sigma L-2654).
Mouse IL-1b MSD assay: Blood was drawn from female CD1 mice (9 to 10 weeks) by cardiac puncture. Blood was plated (135 μL) per well in 96-well U-bottom plates. 7.5 μL of 20× LPS (20 μg/mL, final concentration of 1 μg/mL) was added and mixed by gentle pipetting, and the mixture was incubated in a TC incubator for five hours. 7.5 μL of 20× compound or vehicle per well was added and mixed by gentle pipetting. Compounds were diluted 1/50 in HBSS to prepare a 20× dilution curve in 2% DMSO. The mixture was incubated for 30 minutes in a TC incubator with shaking (450 rpm). 5 μl of 31× ATP (155 mM, final concentration of 5 mM) was added and mixed by gentle pipetting. The mixture was incubated in a TC incubator for 30 minutes with shaking (450 rpm). The plate was centrifuged for 10 minutes at 800×g and ˜70 μL of plasma was removed. Plasma was frozen if required. Mouse IL-1b was analyzed with IL-1b MSD assay (K152TUK). […]
mWB IL-1β Assay: A represents an IC50 value <0.3 μM; B represents an IC50 value ≥0.3 μM and <0.5 μM; C represents an IC50 value ≥0.5 μM and <1.0 μM; D represents an IC50 value ≥1.0 μM.

human NLRP3 [2] = molecular target: T1, human NLRP3; test: Human PBMC NLRP3 Assay (IL-1β release); set-up: Human PBMCs (Normal): iXCells Cat #10HU-003; host or cells: human PBMCs (normal donors), LPS-primed, nigericin-stimulated; settings: human PBMCs
Description: Reagents: Human PBMCs (Normal): iXCells Cat #10HU-003; RPMI 1640 medium (ATCC modification): ThermoFisher Cat #A1049101 (Complete Media: 10% FBS, 1% Pen/Strep; Assay Media: 1% Pen/Strep; 75 cm^2 cell culture flask: Corning Cat #430641U; 96-well cell culture plates: VWR Cat #10062-900; LPS (E. coli 026:B6): Sigma Cat #L2654, stock 5 mg/mL in PBS; Nigericin sodium salt: Sigma Cat #N7143, stock 5 mg/mL (6.7 mM) in ethanol.
Cryopreserved PBMCs (10×10^6 cells/vial) were rapidly thawed in a 37° C. water bath for 2 min and transferred in 10 mL Complete Media. Cells were then centrifuged at 1200 RPM for 5 min, resuspended in 40 mL of Complete Media, transferred in a 75 cm^2 cell culture flask and incubated overnight at 37° C. with 5% CO2. The next day, PBMCs were centrifuged, resuspended in 30 mL Assay Media (˜3.3×10^5 cells/mL) and distributed at 100 μL/well in a 96-well cell culture plate. 50 μl of Assay Media containing 300 ng/ml of LPS was then added to each well except for the untreated control wells (50 μl Assay Media without LPS). Cells were then primed with LPS for 4 h at 37° C. with 5% CO2. A concentration response curve (CRC) was prepared of 500× test compound in 100% dimethyl sulfoxide (DMSO). The CRC was then diluted 1:25 in Assay Media and then further diluted 1:5 in Assay Media resulting in a final 4× CRC in 0.8% DMSO/Assay Media. 50 μL/well of 4× test compound CRC or vehicle (0.8% DMSO/Assay Media) was then transferred into each well and subsequently incubated for 30 min at 37° C. with 5% CO2. Cells were stimulated by adding 4 μL of 500 μM Nigericin, for 1 h at 37° C. with 5% CO2 Plates were then centrifuged at 1200 RPM for 5 min and 100 μl of the media was transferred to a clean 96-well storage plate and stored at −80° C. until analyzed. Cytokine measurements were performed using the mesoscale platform. Compounds were added 30 minutes before priming the cells with LPS when TNFα was required to be quantified in the cytokine panel to confirm selectivity.
Human PBMC NLRP3 Assay: A represents an IC50 value <0.3 μM; B represents an IC50 value ≥0.3 μM and <0.5 μM; C represents an IC50 value ≥0.5 μM and <1.0 μM; D represents an IC50 value >1.0 μM and <10 μM; E represents an IC50 value >10 μM.

[3] = LPS priming 4 h, nigericin stimulation 1 h, class symbols
[4] = LPS priming, nigericin stimulation, numeric values of Tables C1-C4

T1 sequence (Q96P20 whole entry): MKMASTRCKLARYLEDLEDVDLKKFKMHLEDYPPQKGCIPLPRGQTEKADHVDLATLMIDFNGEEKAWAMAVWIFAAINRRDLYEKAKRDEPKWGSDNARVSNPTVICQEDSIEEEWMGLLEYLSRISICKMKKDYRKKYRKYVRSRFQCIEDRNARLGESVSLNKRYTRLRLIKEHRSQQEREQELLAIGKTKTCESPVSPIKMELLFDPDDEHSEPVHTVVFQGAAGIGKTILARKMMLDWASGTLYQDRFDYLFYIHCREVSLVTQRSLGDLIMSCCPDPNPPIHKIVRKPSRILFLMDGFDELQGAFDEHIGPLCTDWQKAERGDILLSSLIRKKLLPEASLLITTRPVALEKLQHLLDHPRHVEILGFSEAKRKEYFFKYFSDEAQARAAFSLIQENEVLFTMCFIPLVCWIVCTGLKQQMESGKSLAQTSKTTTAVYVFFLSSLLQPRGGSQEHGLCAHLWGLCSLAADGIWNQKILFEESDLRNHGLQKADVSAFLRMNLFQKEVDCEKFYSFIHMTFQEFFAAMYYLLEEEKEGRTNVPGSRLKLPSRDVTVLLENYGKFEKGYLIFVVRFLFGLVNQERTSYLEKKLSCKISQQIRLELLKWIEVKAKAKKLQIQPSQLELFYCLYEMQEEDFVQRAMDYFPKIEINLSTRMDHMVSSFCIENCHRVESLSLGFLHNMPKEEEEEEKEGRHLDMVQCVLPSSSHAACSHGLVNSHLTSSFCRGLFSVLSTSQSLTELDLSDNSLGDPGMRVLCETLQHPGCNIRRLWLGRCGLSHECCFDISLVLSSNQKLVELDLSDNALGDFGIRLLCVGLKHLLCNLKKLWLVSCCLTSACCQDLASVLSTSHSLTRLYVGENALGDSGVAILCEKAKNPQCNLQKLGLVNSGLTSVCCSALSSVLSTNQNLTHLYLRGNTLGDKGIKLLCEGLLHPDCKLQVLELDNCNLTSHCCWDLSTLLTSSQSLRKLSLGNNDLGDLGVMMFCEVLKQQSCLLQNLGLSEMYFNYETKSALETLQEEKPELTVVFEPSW
T2 sequence (Q8R4B8 whole entry): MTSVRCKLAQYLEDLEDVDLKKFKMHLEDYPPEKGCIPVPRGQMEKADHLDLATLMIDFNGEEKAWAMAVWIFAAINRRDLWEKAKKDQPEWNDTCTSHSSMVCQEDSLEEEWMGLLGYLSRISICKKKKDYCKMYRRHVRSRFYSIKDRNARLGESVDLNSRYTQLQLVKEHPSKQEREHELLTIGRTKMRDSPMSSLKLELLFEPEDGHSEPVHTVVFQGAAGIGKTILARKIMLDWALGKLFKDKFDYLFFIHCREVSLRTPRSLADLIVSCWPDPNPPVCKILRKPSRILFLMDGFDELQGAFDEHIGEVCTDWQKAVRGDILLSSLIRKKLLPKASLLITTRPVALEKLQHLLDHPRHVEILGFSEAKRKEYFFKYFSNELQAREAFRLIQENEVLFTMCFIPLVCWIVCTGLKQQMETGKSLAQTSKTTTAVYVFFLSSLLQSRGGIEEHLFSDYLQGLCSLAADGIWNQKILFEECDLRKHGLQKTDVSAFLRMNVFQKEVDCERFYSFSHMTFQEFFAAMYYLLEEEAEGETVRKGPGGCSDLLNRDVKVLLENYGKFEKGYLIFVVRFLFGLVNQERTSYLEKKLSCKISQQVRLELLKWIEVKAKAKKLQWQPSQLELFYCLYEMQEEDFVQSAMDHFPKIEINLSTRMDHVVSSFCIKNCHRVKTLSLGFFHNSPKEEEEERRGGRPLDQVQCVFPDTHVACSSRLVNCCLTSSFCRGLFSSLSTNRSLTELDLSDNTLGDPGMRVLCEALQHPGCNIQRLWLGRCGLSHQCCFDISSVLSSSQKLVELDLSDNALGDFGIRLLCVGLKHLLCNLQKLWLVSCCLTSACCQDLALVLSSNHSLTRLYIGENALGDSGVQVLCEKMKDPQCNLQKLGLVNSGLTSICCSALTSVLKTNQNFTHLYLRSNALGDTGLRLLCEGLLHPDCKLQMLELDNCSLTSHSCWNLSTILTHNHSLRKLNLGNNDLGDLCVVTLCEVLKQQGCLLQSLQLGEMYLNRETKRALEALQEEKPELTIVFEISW

Compound | IC50 (human NLRP3 [1]) | IC50 (mouse NLRP3) | IC50 (human NLRP3 [2]; [3]) | IC50 (human NLRP3 [2]; [4])
C[C@@H](CC(=O)O)[C@H](NC(=O)CN1C(=O)C(C)(C)c2c1ccc(C1CC1)c2F)C1CC1 (single isomer, unassigned) [Compound 60A*] | 0.5 to 1 µM | < 0.3 µM | < 0.3 µM | 
CC1(C)C(=O)N(CC(=O)NCCCC(=O)O)c2ccc(Br)cc21 [Compound 2, 4-(2-(5-bromo-3,3-dimethyl-2-oxoindolin-1-yl)acetamido)butanoic acid] | > 1 µM | < 0.3 µM | < 0.3 µM | 0.15 µM
CC1(C)C(=O)N(CC(=O)NCCCC(=O)O)c2c(F)cc(C3CC3)c(F)c21 [Compound 57, 4-(2-(5-cyclopropyl-4,7-difluoro-3,3-dimethyl-2-oxoindolin-1-yl)acetamido)butanoic acid] | 0.3 to 0.5 µM | < 0.3 µM | < 0.3 µM | 0.059 µM
C[C@@H](CCC(=O)O)NC(=O)CN1C(=O)C(C)(C)c2c(F)c(C3CC3)cc(F)c21 [Compound 59A, (S)-4-(2-(5-cyclopropyl-4,7-difluoro-3,3-dimethyl-2-oxoindolin-1-yl)acetamido)pentanoic acid] | 0.3 to 0.5 µM | < 0.3 µM | < 0.3 µM | 
CC1(C)C(=O)N(CC(=O)NCCCC(=O)O)c2ccc(C3CC3)c(F)c21 [Compound 56, 4-(2-(5-cyclopropyl-4-fluoro-3,3-dimethyl-2-oxoindolin-1-yl)acetamido)butanoic acid] | 0.5 to 1 µM | < 0.3 µM | < 0.3 µM | 0.046 µM
CC1(C)C(=O)N(CC(=O)NCCCC(=O)O)c2c(O)cc(Br)cc21 [Compound 16, 4-(2-(5-bromo-7-hydroxy-3,3-dimethyl-2-oxoindolin-1-yl)acetamido)butanoic acid] | 0.5 to 1 µM | 0.5 to 1 µM | < 0.3 µM | 
CC1(C)C(=O)N(CC(=O)NC[C@H](F)CC(=O)O)c2c(F)cc(C(F)(F)F)c(F)c21 [Compound 64A, (R)-4-(2-(4,7-difluoro-3,3-dimethyl-2-oxo-5-(trifluoromethyl)indolin-1-yl)acetamido)-3-fluorobutanoic acid] | 0.5 to 1 µM | < 0.3 µM | < 0.3 µM | 
CC1(C)C(=O)N(CC(=O)NCCCc2nnn[nH]2)c2c(F)cc(C3CC3)c(F)c21 [Compound 65, N-(3-(1H-tetrazol-5-yl)propyl)-2-(5-cyclopropyl-4,7-difluoro-3,3-dimethyl-2-oxoindolin-1-yl)acetamide] | 0.5 to 1 µM | < 0.3 µM | < 0.3 µM | 0.015 µM
CC1(C)C(=O)N(CC(=O)NCCCC(=O)O)c2c(F)cc(C3CC3)cc21 [Compound 66, 4-(2-(5-cyclopropyl-7-fluoro-3,3-dimethyl-2-oxoindolin-1-yl)acetamido)butanoic acid] | < 0.3 µM | < 0.3 µM | < 0.3 µM | 0.024 µM
CC1(C)C(=O)N(CC(=O)NC[C@H](F)CC(=O)O)c2ccc(C3CC3)c(F)c21 [Compound 63A, (R)-4-(2-(5-cyclopropyl-4-fluoro-3,3-dimethyl-2-oxoindolin-1-yl)acetamido)-3-fluorobutanoic acid] | 0.5 to 1 µM | < 0.3 µM | < 0.3 µM | 
